Experimental data published in US12209079B2 (GENERAL INCORPORATED ASSOCIATION PHARMA VALLEY PROJECT …, priority 2017, dated 2025).
Structures can show the parent of a compound that is named as a salt.

How the values were obtained:
[1] = target: rhIDO (recombinant human IDO) (Homo sapiens, UniProt P14902); assay: Enzyme assay using rhIDO (rate of kynurenine production); format: biochemical; conditions: 2 h; final concentration of the compound 10 μM; rate relative to reaction without compound; read-out: rhIDO-mediated kynurenine production
Procedure, shortened: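 Kynurenine formation, expressed as % of uncompounded reaction after background subtraction, was read by absorbance at 490 nm following TCA stop, 50 °C hydrolysis and Ehrlich-type p-dimethylbenzaldehyde staining. Recombinant human IDO with ascorbate/methylene blue/catalase was pre-exposed to compound 10 min, then reacted 120 min at 37 °C after adding 2 mM tryptophan stock.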

[2] = target: rhTDO (recombinant human TDO) (Homo sapiens, UniProt P48775); assay: Enzyme assay using rhTDO (rate of kynurenine production); format: biochemical; conditions: 2 h; final concentration of the compound 10 μM; rate relative to reaction without compound; read-out: rhTDO-mediated kynurenine production
Procedure, shortened: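 Kynurenine output, as percent of untreated control after background subtraction, read at 490 nm with p-dimethylbenzaldehyde following TCA quench and 15 min heating at 50 °C. Reaction: rhTDO with compound, 10 min preincubation then 120 min at 37 °C, started by 20 mM tryptophan stock, in phosphate/ascorbate/methylene blue/catalase.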

IDO in A431 cells = target: T1, IDO in A431 cells (Homo sapiens, UniProt P14902); assay: IDO cell-based assay, kynurenine production in IFN-γ stimulated A431 cells; conditions: A-431, 24 h; final concentration of the compound 10 μM; rate relative to culture without compound
T1 construct: endogenous in cells; host or cells: A431 cells, IFN-γ stimulated
Procedure, shortened: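 Kynurenine output was read by absorbance at 460 nm after p-dimethylbenzaldehyde/trichloroacetic acid reagent, background-corrected, and given as % of untreated wells. Before the read, cells in 178 μM L-tryptophan medium had 1 h compound preincubation, then 24 h IFN-γ stimulation (added as 100 ng/mL dilution).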

TDO in A172 cells = target: T2, TDO in A172 cells (Homo sapiens, UniProt P48775); assay: TDO cell-based assay, kynurenine production in A172 cells; conditions: A 172; final concentration of the compound 10 μM; rate relative to culture without compound
T2 construct: endogenous in cells; host or cells: A172 cells
Procedure, shortened: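 A172 cells were preincubated with compound for 1 h, then given L-tryptophan (final 524 μM) for 24 h at 37 °C. Kynurenine was read at 460 nm after p-dimethylbenzaldehyde/TCA reagent, background-subtracted, and expressed as % of no-compound production.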

rhIDO (recombinant human IDO), sequence (P14902 whole entry): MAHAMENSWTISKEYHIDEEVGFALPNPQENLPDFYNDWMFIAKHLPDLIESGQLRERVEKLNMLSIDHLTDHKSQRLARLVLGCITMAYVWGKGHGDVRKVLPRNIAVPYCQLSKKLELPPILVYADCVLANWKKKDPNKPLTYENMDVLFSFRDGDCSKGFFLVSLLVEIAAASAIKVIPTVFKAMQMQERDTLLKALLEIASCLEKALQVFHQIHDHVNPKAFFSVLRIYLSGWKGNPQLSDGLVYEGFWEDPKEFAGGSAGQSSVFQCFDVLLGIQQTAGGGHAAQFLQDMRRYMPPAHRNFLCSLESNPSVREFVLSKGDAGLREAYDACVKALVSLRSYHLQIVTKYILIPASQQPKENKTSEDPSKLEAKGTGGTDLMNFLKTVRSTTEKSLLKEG
T1 sequence (P14902 whole entry): as above
T2 sequence (P48775 whole entry): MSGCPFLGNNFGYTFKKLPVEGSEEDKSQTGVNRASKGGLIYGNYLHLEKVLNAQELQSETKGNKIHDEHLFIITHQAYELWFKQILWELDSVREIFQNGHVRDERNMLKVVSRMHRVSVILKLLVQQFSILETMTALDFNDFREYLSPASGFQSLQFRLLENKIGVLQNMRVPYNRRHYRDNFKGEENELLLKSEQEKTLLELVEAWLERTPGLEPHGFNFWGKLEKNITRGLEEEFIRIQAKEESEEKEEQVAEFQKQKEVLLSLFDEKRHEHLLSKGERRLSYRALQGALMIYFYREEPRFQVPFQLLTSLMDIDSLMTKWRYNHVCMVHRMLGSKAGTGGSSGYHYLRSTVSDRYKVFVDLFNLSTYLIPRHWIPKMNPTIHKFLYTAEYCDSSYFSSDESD
rhTDO (recombinant human TDO), sequence (P48775 whole entry): as above

Row | SMILES | remaining activity at 10 µM [1] [%] | remaining activity at 10 µM [2] [%] | remaining activity at 10 µM (IDO in A431 cells) [%] | remaining activity at 10 µM (TDO in A172 cells) [%]
1 | N#Cc1ccc(CNC(=O)c2ccc(Br)cc2C[Se]C(=N)N)cc1 [Compound 113, 5-Bromo-2-((4-cyanobenzyl)carbamoyl)benzyl carbamimidoselenoate hydrobromide] | 92 | 58 | 73 | 44
2 | COC(=O)c1ccccc1CSC(=N)N [Compound 55, Methyl 2-((carbamimidoylthio)methyl)benzoate hydrochloride] | 91 | 111 | 73 | 121
3 | N#Cc1ccc(CNC(=O)c2ccc(Br)cc2CS/C(N)=N/c2ccc(F)c(Cl)c2)cc1 [Compound 85, 5-Bromo-2-((4-cyanobenzyl)carbamoyl)benzyl (E)-N′-(3-chloro-4-fluorophenyl)carbamimidothioate hydrobromide] | 71 | 50 | 56 | 16
4 | N=C(N)SCc1cc(Br)ccc1C(=O)NCC1CC1 [Compound 93, 5-Bromo-2-((cyclopropylmethyl)carbamoyl)benzyl carbamimidothioate hydrobromide] | 103 | 53 | 124 | 49
5 | N=C(N)[Se]Cc1nc2ccccc2nc1C[Se]C(=N)N [Compound 112, Quinoxaline-2,3-diylbis(methylene) dicarbamimidoselenoate dihydrobromide] | 94 | 90 | -2 | 5
6 | CNC(=O)Cc1ccccc1CS/C(N)=N/c1ccc(F)c(Cl)c1 [Compound 80, 2-(2-(Methylamino)-2-oxoethyl)benzyl (E)-N′-(3-chloro-4-fluorophenyl)carbamimidothioate hydrobromide] | 97 | 38 | 66 | 45
7 | N/C(=N\c1ccc(Br)cc1)SCc1cc(Cl)c(Cl)cc1CS/C(N)=N/c1ccc(Br)cc1 [Compound 135, (4,5-Dichloro-1,2-phenylene)bis(methylene) (E,E)-bis(N′-(4-bromophenyl)carbamimidothioate) dihydrobromide] | -2 | 8 | 12 | 0
8 | N=C(N)SCCc1ccccc1CSC(=N)N [Compound 51, 2-(2-(Carbamimidoylthio)ethyl)benzyl carbamimidothioate dihydrobromide] | 19 | 13 | 23 | 25
9 | N#Cc1ccc(CNC(=O)c2ccccc2C[Se]C(=N)N)cc1 [Compound 104, 2-((4-Cyanobenzyl)carbamoyl)benzyl carbamimidoselenoate hydrobromide] | 78 | 81 | -4 | -1
10 | Brc1ccc(CSC2=NCN(CC3CC3)CN2)c(CSC2=NCN(CC3CC3)CN2)c1 [Compound 75, 6,6′-(((4-Bromo-1,2-phenylene)bis(methylene))bis(sulfanediyl))bis(3-(cyclopropylmethyl)-1,2,3,4-tetrahydro-1,3,5-triazine)] | 35 | 15 | 9 | 3
11 | N=C(N)SCc1sc2ccccc2c1CSC(=N)N [Compound 151, Benzo[b]thiophene-2,3-diylbis(methylene) dicarbamimidothioate dihydrobromide] | 13 | 11 | 33 | 76
12 | N#Cc1ccc(CNC(=O)c2cccc(Br)c2CSC(=N)N)cc1 [Compound 111, 2-Bromo-6-((4-cyanobenzyl)carbamoyl)benzyl carbamimidothioate hydrobromide] | 17 | 122 | 53 | 87
13 | Clc1ccc(CN2CN=C(SCc3ccccc3CSC3=NCN(Cc4ccc(Cl)cc4)CN3)NC2)cc1 [Compound 41, 1,2-Bis(((5-(4-chlorobenzyl)-1,4,5,6-tetrahydro-1,3,5-triazin-2-yl)thio)methyl)benzene] | 41 | 45 | 6 | 4
14 | COc1ccc(/N=C(\N)SCc2cc(Cl)c(Cl)cc2CS/C(N)=N/c2ccc(OC)cc2)cc1 [Compound 124, (4,5-Dichloro-1,2-phenylene)bis(methylene) (E,E)-bis(N′-(4-methoxyphenyl)carbamimidothioate) dihydrobromide] | -1 | 20 | 10 | 0
15 | N=C(N)SCc1ccccc1CC(=O)NCC1CCCCC1 [Compound 65, 2-(2-((Cyclohexylmethyl)amino)-2-oxoethyl)benzyl carbamimidothioate hydrobromide] | 89 | 76 | 104 | 94
16 | FC(F)(F)c1cccc(CCN2CN=C(SCc3cc(Cl)c(Cl)cc3CSC3=NCN(CCc4cccc(C(F)(F)F)c4)CN3)NC2)c1 [Compound 152, 6,6′-(((4,5-Dichloro-1,2-phenylene)bis(methylene))bis(sulfanediyl))bis(3-(3-(trifluoromethyl)phenethyl)-1,2,3,4-tetrahydro-1,3,5-triazine)] | 7 | 7 | 9 | 6
17 | N=C(N)SCc1ccccc1CC(=O)NCC1CC1 [Compound 71, 2-(2-((Cyclopropylmethyl)amino)-2-oxoethyl)benzyl carbamimidothioate hydrobromide] | 87 | 67 | 96 | 77
18 | CNC(=O)c1ccc(C#N)cc1CSC(=N)N [Compound 77, 5-Cyano-2-(methylcarbamoyl)benzyl carbamimidothioate hydrobromide] | 74 | 101 | 103 | 89
19 | FC(F)(F)c1ccc(CSC2=NCN(CCc3ccccc3Cl)CN2)c(CSC2=NCN(CCc3ccccc3Cl)CN2)c1 [Compound 48, 6,6′-(((4-(Trifluoromethyl)-1,2-phenylene)bis(methylene))bis(sulfanediyl))bis(3-(2-chlorophenethyl)-1,2,3,4-tetrahydro-1,3,5-triazine)] | 80 | 73 | 63 | 71
20 | CNC(=O)Cc1ccccc1CSC(=N)N [Compound 62, 2-(2-(Methylamino)-2-oxoethyl)benzyl carbamimidothioate hydrobromide] | 58 | 21 | 86 | 56
21 | N=C(N)SCc1ccccc1CC(=O)NCCc1ccccc1Cl [Compound 66, 2-(2-((2-chlorophenethyl)amino)-2-oxoethyl)benzyl carbamimidothioate hydrobromide] | 80 | 49 | 101 | 74
22 | COc1ccc(CN2CN=C(SCc3ccccc3CSC3=NCN(Cc4ccc(OC)cc4)CN3)NC2)cc1 [Compound 26, 1,2-bis(((5-(4-methoxybenzyl)-1,4,5,6-tetrahydro-1,3,5-triazin-2-yl)thio)methyl)benzene] | 36 | 44 | 5 | -5
23 | N=C(N)SCc1ccccc1CC(=O)NCCC1CCCCC1 [Compound 69, 2-(2-((2-Cyclohexylethyl)amino)-2-oxoethyl)benzyl carbamimidothioate hydrobromide] | 76 | 60 | 101 | 73
24 | N=C(N)SCc1cc(Br)ccc1C(=O)NCc1ccc(Br)cc1 [Compound 97, 5-Bromo-2-((4-bromobenzyl)carbamoyl)benzyl carbamimidothioate hydrobromide] | 85 | 16 | 83 | 37
